Data on one compound can be found in ChEMBL document CHEMBL3758137 (Eur J Med Chem, 2016).

Data set [1] can be described thus: Antiproliferative activity against human EBC1 cells after 72 hrs by SRB assay. To be noted: EBC-1, 72 h. For orientation: The SRB assay estimates cell density from bound dye.
The nature of data set [2]: Solubility of compound in HBSS/HEPES buffer at pH 6.8 by nephelometric analysis in presence of 0.1% BSA. In kind it is physicochemical. Conditions: HBSS/HEPES buffer with 0.1% BSA.
The nature of data set [3]: AUC (0 to 8 hrs) in mouse plasma at 10 mg/kg, po. More on the design: dose 10 mg/kg, time < 8 hr, route oral. In kind it is ADME, organism-based.
Data set [4] has as its target T1, Tyrosine-protein kinase receptor TYRO3 (Homo sapiens, UniProt Q06418).
T1 sequence (Q06418 whole entry): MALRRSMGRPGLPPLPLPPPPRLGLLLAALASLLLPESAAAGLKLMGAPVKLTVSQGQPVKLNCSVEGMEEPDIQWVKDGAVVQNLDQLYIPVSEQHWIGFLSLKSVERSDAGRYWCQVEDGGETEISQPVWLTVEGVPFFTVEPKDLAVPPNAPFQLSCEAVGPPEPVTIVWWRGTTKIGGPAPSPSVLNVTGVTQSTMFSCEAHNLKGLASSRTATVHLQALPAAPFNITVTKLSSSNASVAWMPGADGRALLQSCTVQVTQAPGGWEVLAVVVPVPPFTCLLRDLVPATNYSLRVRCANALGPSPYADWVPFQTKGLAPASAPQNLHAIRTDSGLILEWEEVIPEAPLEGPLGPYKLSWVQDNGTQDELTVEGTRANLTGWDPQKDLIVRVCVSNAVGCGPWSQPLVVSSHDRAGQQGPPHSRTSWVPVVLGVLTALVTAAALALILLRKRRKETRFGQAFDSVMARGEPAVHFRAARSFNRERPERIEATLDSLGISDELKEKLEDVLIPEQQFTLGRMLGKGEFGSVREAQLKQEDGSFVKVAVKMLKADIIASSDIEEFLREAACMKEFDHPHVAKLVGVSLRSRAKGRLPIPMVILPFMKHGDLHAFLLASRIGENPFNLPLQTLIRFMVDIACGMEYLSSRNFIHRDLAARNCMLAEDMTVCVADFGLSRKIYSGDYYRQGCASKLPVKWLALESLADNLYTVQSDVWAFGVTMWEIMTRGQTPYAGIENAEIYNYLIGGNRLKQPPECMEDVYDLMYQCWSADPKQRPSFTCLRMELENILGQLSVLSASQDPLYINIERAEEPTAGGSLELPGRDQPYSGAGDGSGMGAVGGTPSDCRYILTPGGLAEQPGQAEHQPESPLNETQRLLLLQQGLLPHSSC
Put plainly: Inhibition of recombinant human TyrO3 using poly (Glu,Tyr)4:1 as substrate after 60 mins by ELISA. (In general: ELISA stands for enzyme-linked immunosorbent assay.)

Data set [5] has as its target T2, Tyrosine-protein kinase Mer (Homo sapiens, UniProt Q12866).
T2 sequence (Q12866 whole entry): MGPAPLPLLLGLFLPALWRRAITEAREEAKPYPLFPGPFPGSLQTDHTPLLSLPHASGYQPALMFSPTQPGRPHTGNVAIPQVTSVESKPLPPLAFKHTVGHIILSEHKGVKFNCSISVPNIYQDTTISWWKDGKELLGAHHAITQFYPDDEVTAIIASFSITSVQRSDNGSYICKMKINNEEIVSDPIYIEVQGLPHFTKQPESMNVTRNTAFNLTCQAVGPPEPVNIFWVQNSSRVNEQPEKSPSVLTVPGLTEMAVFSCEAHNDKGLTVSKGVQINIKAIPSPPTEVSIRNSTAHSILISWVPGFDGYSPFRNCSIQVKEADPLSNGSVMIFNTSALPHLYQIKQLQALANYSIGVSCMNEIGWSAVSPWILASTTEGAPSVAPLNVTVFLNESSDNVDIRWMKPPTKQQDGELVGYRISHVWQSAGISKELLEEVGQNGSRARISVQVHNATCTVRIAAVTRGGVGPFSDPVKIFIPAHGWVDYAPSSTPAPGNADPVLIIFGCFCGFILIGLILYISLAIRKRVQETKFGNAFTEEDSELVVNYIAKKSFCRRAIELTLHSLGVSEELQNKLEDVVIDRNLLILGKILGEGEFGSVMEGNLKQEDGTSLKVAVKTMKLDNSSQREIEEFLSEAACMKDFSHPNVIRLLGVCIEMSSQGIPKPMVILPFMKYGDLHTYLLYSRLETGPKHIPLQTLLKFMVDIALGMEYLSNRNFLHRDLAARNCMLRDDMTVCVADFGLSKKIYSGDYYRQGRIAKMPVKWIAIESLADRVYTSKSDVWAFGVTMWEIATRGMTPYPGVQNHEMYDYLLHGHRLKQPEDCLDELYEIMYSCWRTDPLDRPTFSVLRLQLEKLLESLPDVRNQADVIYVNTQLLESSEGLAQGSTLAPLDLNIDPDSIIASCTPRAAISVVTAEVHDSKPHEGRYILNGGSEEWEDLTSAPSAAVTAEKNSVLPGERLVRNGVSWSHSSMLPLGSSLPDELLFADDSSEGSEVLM
Kind of data set: Inhibition of recombinant human Mer using poly (Glu,Tyr)4:1 as substrate after 60 mins by ELISA.

Data set [6] deals with Platelet-derived growth factor receptor alpha (Homo sapiens, UniProt P16234). Put plainly: Inhibition of recombinant human PDGFR-alpha using poly (Glu,Tyr)4:1 as substrate after 60 mins by ELISA.
The target in data set [7] is Vascular endothelial growth factor receptor 2 (Homo sapiens, UniProt P35968). Put plainly: Inhibition of recombinant human KDR using poly (Glu,Tyr)4:1 as substrate after 60 mins by ELISA.
In data set [8] the target is Epidermal growth factor receptor (Homo sapiens, UniProt P00533). Kind of data set: Inhibition of recombinant human EGFR using poly (Glu,Tyr)4:1 as substrate after 60 mins by ELISA.
Data set [9] concerns the target Proto-oncogene tyrosine-protein kinase Src (Homo sapiens, UniProt P12931). Kind of data set: Inhibition of recombinant human c-Src using poly (Glu,Tyr)4:1 as substrate after 60 mins by ELISA.
Data set [10] addresses Tyrosine-protein kinase ABL1 (Homo sapiens, UniProt P00519). Kind of data set: Inhibition of recombinant human ABL using poly (Glu,Tyr)4:1 as substrate after 60 mins by ELISA.
A short description of data set [11]: Antitumor activity against human EBC1 cells xenografted in nude mouse assessed as tumor growth inhibition at 40 mg/kg, po qd administered for 21 days relative control. To be noted: EBC-1, po, 504 h, read-out: TGI. The class given is functional. On the technique in general: A xenograft is tissue or cells of one species grown in another, often human tumour cells in immunodeficient mice.

Molecules are shown by their SMILES.

Sequence of Epidermal growth factor receptor (P00533 whole entry): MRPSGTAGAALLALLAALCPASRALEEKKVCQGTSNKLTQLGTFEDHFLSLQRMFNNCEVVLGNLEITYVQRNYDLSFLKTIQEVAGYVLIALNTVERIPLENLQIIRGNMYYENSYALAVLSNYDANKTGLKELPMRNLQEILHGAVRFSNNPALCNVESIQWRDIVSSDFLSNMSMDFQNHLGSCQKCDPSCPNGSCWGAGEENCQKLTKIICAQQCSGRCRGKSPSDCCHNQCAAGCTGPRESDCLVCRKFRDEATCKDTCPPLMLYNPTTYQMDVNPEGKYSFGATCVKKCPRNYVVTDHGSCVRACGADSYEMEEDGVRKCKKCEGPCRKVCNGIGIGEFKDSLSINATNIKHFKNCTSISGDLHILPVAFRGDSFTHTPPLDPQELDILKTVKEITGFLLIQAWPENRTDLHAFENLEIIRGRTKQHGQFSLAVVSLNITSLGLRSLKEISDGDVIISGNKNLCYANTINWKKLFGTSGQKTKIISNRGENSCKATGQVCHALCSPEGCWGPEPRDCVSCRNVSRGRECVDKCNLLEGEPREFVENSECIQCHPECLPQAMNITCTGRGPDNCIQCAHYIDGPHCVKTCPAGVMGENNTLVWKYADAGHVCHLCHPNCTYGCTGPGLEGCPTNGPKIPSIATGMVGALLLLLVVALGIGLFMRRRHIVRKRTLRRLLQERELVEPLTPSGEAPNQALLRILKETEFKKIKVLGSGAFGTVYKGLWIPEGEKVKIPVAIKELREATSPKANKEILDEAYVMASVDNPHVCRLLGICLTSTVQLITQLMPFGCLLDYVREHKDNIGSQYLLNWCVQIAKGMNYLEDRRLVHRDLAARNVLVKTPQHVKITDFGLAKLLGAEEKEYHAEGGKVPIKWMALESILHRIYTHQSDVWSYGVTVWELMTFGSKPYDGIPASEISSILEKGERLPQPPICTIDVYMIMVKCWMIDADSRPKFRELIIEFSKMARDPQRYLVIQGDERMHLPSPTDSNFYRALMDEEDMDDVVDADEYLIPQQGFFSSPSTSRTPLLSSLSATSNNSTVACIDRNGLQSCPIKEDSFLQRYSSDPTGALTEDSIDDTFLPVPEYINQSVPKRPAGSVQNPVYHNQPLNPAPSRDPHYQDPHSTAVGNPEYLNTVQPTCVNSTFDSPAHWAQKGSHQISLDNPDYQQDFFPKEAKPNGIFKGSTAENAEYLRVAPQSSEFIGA
Sequence of Proto-oncogene tyrosine-protein kinase Src (P12931 2-536 limits assumed): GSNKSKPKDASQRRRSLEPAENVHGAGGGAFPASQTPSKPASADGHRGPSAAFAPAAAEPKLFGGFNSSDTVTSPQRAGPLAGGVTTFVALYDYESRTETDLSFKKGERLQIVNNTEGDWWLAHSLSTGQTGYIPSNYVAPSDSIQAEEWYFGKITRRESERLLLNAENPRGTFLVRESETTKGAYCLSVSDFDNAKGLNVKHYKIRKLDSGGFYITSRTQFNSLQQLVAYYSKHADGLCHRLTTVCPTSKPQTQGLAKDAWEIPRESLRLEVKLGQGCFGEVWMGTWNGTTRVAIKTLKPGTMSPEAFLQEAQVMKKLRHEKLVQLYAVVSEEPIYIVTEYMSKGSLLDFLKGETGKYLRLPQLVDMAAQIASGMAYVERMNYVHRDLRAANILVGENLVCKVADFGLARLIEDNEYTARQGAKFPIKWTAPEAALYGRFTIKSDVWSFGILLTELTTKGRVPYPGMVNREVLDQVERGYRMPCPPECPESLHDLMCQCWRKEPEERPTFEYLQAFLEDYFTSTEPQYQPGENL
Sequence of Vascular endothelial growth factor receptor 2 (P35968 whole entry): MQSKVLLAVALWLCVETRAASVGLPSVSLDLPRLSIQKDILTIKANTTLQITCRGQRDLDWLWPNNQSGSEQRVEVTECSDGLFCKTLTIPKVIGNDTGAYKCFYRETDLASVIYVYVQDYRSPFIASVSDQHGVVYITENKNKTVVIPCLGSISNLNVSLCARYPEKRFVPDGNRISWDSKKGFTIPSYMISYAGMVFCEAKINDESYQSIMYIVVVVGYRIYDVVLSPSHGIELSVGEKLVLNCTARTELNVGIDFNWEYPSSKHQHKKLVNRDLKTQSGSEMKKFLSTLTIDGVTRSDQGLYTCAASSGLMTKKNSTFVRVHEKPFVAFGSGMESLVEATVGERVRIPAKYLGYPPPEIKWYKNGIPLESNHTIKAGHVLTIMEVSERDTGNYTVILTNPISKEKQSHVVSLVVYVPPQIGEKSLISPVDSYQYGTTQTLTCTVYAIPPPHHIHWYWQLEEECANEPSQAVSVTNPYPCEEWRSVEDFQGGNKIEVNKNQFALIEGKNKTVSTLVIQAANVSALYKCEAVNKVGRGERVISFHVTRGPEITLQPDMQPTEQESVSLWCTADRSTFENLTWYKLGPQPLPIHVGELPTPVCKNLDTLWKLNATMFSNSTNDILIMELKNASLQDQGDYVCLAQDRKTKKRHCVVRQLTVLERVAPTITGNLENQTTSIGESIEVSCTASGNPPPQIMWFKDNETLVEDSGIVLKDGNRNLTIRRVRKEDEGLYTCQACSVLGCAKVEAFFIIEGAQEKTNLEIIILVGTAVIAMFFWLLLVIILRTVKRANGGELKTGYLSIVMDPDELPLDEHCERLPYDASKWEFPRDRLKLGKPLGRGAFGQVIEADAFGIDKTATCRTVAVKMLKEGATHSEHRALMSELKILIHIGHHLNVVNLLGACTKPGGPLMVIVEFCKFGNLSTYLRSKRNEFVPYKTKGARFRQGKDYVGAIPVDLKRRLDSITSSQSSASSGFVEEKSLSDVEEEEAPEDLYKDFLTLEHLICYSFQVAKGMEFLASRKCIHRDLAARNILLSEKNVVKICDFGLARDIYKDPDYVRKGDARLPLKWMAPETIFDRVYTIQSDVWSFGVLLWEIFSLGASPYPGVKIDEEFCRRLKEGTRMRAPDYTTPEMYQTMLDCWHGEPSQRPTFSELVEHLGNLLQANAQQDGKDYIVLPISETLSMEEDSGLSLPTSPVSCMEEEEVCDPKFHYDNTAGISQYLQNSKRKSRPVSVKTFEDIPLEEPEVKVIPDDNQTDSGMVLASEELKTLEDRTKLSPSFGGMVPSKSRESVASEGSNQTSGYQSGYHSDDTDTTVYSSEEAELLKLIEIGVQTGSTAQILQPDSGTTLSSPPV
Sequence of Platelet-derived growth factor receptor alpha (P16234 whole entry): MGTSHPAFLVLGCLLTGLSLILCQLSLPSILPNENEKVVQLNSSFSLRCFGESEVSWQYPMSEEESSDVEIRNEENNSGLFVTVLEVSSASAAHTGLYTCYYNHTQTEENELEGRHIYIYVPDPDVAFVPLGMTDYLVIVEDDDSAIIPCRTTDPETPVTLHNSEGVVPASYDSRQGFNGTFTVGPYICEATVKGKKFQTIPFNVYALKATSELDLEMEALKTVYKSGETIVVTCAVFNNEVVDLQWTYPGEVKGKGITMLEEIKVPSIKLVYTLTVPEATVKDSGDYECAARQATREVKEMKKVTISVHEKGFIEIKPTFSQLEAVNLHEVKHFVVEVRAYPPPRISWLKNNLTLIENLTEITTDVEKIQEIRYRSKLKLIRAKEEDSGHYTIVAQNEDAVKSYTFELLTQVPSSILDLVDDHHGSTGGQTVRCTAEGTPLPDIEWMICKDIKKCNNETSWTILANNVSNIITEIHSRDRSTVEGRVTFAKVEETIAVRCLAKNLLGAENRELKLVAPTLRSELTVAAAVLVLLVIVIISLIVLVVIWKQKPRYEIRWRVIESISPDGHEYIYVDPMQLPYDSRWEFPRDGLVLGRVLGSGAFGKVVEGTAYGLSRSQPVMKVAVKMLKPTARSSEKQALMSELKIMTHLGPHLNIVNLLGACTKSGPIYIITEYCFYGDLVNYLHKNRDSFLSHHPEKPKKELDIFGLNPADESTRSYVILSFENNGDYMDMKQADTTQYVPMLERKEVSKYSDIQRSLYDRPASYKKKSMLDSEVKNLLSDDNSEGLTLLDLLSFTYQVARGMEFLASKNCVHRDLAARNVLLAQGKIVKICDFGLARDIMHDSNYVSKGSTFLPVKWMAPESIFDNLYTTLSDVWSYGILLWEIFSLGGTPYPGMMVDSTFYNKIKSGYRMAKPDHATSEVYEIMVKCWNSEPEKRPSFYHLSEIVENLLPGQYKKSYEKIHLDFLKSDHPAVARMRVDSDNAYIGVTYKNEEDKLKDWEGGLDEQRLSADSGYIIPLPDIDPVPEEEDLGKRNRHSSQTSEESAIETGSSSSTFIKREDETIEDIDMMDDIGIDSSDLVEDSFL

As for `Cn1cc(-c2cnc(Nc3cccc(Cn4nc(-c5cnn(C)c5)ccc4=O)c3)nc2)cn1`, the IC50 (in general, the concentration at which inhibition is half-maximal) in data set [1] is 31.2 nM; in data set [4], over 1000 nM; in data set [5], over 1000 nM; in [6], over 1000 nM; in [7], over 1000 nM; in [8], over 1000 nM. In addition, the IC50 in data set [9] and in data set [10] was over 1000 nM in each case. Also, the solubility (kinetic) – broadly, solubility judged after dilution from a stock solution rather than from solid – in data set [2] was determined as 51 µM. For the same compound, in data set [3], the AUC(0-t) (commonly the area under the concentration-time curve up to a stated or last time point) at 8 h came out at 1750 ng·h/mL. In addition, in data set [11], the inhibition in vivo at 40 mg/kg amounted to 68.6%.
